According to patent US20110091931A1, “Methods and Kits for Determining Oxygen Free Radical (OFR) Levels in Animal and Human Tissues as a Prognostic Marker for Cancer and Other Pathophysiologies” (COLBY PHARMACEUTICAL COMPANY, priority 2009, published 2011):
Where two headings read alike, the source gives them in different places.

Key:
Androgen Receptor (AR) = Androgen Receptor (AR) (Homo sapiens, UniProt P10275, T878A); conditions: LNCaP cells; for fluorescence score, geometric mean / fluorescence score, mean after logarithmic transformation: 40 cells
Protocol: The quantitation of subcellular fluorescence was further validated using a known system—nuclear translocation of AR in LNCaP cells treated with androgen (dihydrotestosterone) or androgen analog metribolone. […] LNCaP cells in charcoal stripped androgen depleted medium are grown for 6 days in the presence of low (0.05 nM) metribolone and 4 more days in the presence of high (1 nM) metribolone. […] For objective analysis of the response, a quantitation of the IHC fluorescence is necessary. The Bioimager was used to quantitate the IHC fluorescence of AR in the nuclei and in the cytoplasm of about 40 cells from four random areas of the microscopic field from each plate.

[1] = system: LNCaP human prostate cancer cells; test: DCFH dye oxidation kinetics (ROS, v0) in nuclei and cytoplasm of LNCaP cells; format: cell-based; conditions: metribolone treatment over 24-96 h
Protocol: Standardization of cell-based fluorescence quantitation assay. We standardized the BD Pathway Bioimager quantitation of cellular ROS using a well-established cell culture based system. […] The ROS levels in these published studies were determined by monitoring DCFH dye oxidation, where DCFH is oxidized to DCF by ROS to yield quantifiable green fluorescence. The DCF fluorescence in live cell cytoplasm and nuclei (FIG. 2B) were quantitated by using the Hoechst 33342 dye staining of the cell nuclei (blue fluorescence in FIG. 2) that allows for auto focusing, positioning and mapping the contour of the cell nuclei and cytoplasms.
(1) Kinetics of DCF dye oxidation: Oxidation of DCFH to fluorescence DCF dye is a relatively fast reaction that is usually complete within 30-60 minutes. […] Curve fitting of the first 20-30 min of the plot of DCF fluorescence intensity vs. time with a pseudo-first order reaction kinetics yields the initial velocity (v0) values of the reaction (see below), which is directly proportional to the ROS concentration at the time point of DCF dye addition.
(1) Real-time kinetics of DCF dye oxidation in cell nuclei and cytoplasm: DCF dye oxidation kinetics in the nuclei and cytoplasm of LNCaP cells were determined using the BD Bioimager software coupled with Sigmaplot curve-fitting program. […]

SSAT = SSAT mRNA level by qRT-PCR in LNCaP cells; format: cell-based, human
Protocol: Each data point was an average of readings from six identically treated LNCaP prostate cancer cell sample wells with readings repeated twice in triplicate sets.
In order to confirm that SSAT was the major source of androgen induced oxidative stress, we developed and used a stable LNCaP cell clone transfected with plasmid transcribing siRNA designed to silence SSAT mRNA expression. The SSAT mRNA level in these cells was determined by qRT-PCR method. […] The ratio of DCF fluorescence (green):DNA fluorescence (blue) for each of the treated well of a 96 well plate normalized to that of the average of control untreated wells represents the ROS level per cell relative to that in control untreated cells. The data points are the mean of numbers obtained from repeat experiments using thirty identically treated wells.

[2] = system: SSAT (spermidine/spermine acetyl transferase) gene; test: DNA microarray analysis of gene expression (Affymetrix Gene chip Array) in LNCaP cells; format: cell-based, human; conditions: 1 nM R1881, 96 h vs untreated
Protocol: SSAT induction is a mechanism of ROS production in CaP cells. In our search for the biochemical mechanism and convenient diagnostic monitoring of androgen-induced ROS production in prostate cells, a DNA microarray analysis of gene expression was also performed using the Affymetrix Gene chip Array We used untreated androgen dependent LNCaP cells and cells treated with 1 nM androgen […] (a well-accepted androgen analog routinely used due to its stability) for 96 h for these studies. […] We noted with considerable interest that among the list of genes that are overexpressed by more than an order of magnitude after androgen-treatment, SSAT is the only enzyme that is directly related to a ROS-generating biochemical pathway.

LNCaP cells [3] = test: HPLC quantitation of polyamine and acetyl polyamine levels in LNCaP cells; format: cell-based, human; conditions: R1881 1 nM, 96 h
Excerpt: This method is routinely used in the analytical laboratory of the core facility of Cancer Centers and was accessible for quantitative assays necessary for the PK/PD determinations. […] Each data point was an average of two determinations where sample cell pellets were collected from three independent experiments.

LNCaP cells [4] = test: DCF dye oxidation assay of androgen (R1881) induced ROS production; format: cell-based, human; conditions: cells (si22) transfected with vector transcribing siRNA against SSAT
Protocol: SSAT induction is a major source of androgen induced oxidative stress. In order to confirm that SSAT was the major source of androgen induced oxidative stress, we developed and used a stable LNCaP cell clone transfected with plasmid transcribing siRNA designed to silence SSAT mRNA expression. The SSAT mRNA level in these cells was determined by qRT-PCR method. In the cells transfected only with the vector, the SSAT mRNA level increased by over 8-fold after 96 h treatment with R1881, whereas in cells stably transfected with SSAT siRNA (si22), R1881 under similar treatment condition induced less than 2-fold increase in the SSAT transcript, showing over 75% silencing of SSAT mRNA expression. The ROS production induced by androgen analog R1881 in these cells was measured by DCF dye oxidation assay. The green fluorescence of oxidized DCF in androgen treated LNCaP cells was shown. The effect of SSAT silencing on the R1881 induced ROS production measured by DCF assay was also shown. The ratio of DCF fluorescence (green):DNA fluorescence (blue) for each of the treated well of a 96 well plate normalized to that of the average of control untreated wells represents the ROS level per cell relative to that in control untreated cells. The data points are the mean of numbers obtained from repeat experiments using thirty identically treated wells.
Each data point was an average of readings from six wells repeated twice in triplicates. […] The ROS levels of all CPC-200 pretreated cells were normalized to the ROS levels of cells treated with CPC-200 alone.

[5] = system: LNCaP human prostate cancer cells; conditions: 1 nM metribolone, 96 h; cited from earlier work
prostate cancer cells = conditions: androgen-dependent and androgen-independent prostate cancer cells; cited from earlier work

Sequence of Androgen Receptor (AR) (P10275 whole entry T878A): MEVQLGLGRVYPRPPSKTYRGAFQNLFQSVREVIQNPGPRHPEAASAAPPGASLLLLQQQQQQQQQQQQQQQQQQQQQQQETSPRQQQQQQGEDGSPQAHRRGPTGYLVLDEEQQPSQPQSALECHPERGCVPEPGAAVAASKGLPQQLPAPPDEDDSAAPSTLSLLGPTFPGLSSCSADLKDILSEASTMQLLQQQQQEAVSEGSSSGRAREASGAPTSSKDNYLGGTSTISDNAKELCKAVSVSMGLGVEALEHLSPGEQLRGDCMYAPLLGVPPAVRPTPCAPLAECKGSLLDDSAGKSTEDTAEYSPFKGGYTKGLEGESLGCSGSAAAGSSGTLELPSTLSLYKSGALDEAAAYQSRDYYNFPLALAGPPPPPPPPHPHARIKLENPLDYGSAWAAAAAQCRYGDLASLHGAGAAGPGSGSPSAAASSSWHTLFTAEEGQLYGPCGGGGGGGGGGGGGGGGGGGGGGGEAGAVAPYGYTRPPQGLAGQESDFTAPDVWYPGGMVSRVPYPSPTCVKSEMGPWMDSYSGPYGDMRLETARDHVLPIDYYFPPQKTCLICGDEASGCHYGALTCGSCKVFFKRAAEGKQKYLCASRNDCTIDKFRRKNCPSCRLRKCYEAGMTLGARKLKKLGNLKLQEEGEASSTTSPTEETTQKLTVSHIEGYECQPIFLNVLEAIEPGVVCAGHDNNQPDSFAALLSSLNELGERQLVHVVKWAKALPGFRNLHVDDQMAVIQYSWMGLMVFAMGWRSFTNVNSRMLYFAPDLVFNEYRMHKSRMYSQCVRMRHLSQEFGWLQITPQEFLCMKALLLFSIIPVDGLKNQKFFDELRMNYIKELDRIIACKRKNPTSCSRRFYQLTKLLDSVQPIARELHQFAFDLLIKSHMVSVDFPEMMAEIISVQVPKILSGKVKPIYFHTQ

| Structure (SMILES) | fluorescence score, geometric mean (Androgen Receptor (AR); 0.05 nM metribolone (control)) | fluorescence score, mean after logarithmic transformation (Androgen Receptor (AR); 0.05 nM metribolone (control)) | increase in the ratio of nuclear fluorescence intensities over the cytoplasmic intensities (AR IHC) (Androgen Receptor (AR); 1 nM metribolone compared to 0.05 nM metribolone) | fluorescence score, geometric mean (Androgen Receptor (AR); 1 nM metribolone) | fluorescence score, mean after logarithmic transformation (Androgen Receptor (AR); 1 nM metribolone) | cells responding dramatically (nuclear localization of AR) (Androgen Receptor (AR); high (1 nM) metribolone) | nuclear and cytoplasmic ROS levels (v0 of DCFH dye oxidation) [1] | increase in the SSAT transcript (SSAT; LNCaP cells stably transfected with SSAT siRNA (si22), 96 h R1881) | increase in SSAT mRNA level (SSAT; LNCaP cells transfected only with the vector, 96 h R1881) | SSAT over-expression, dependence on R1881 concentration (SSAT; LNCaP cells, 1 nM vs 0.05 nM R1881) | increase in SSAT mRNA level (SSAT; R1881 treated LNCaP cells vs untreated control cells) | SSAT gene expression (microarray) [2] | putrescine, spermidine, N-acetyl spermidine and N-acetyl spermine levels (LNCaP cells [3]) | spermine level (LNCaP cells [3]) | R1881 induced ROS levels (LNCaP cells [4]) | ROS production (DCFH dye oxidation) [5] | activities against prostate cancer cells (prostate cancer cells) |
| --- | --- | --- | --- | --- | --- | --- | --- | --- | --- | --- | --- | --- | --- | --- | --- | --- | --- |
| C[C@]1(O)CC[C@H]2[C@@H]3CCC4=CC(=O)CCC4=C3C=C[C@@]21C [metribolone, 17β-17-Hydroxy-17-methyl-estra-4,9,11-trien-3-one] | 329 | 5.80 | 1.5 fold | 605 | 6.41 | 20% | increase over time | less than 2 fold | over 8 fold | over-expressed only in cells treated with 1 nM R1881 | > 30 fold | highly overexpressed gene | increased | markedly decreased spermine level | only a minor increase in ROS levels | high levels of ROS | – |
| Cc1c(C)c2c(c(C)c1O)CCC(C)(C)O2 [PMCoI, 2,2,5,7,8 pentamethyl 6-chromanol] | – | – | – | – | – | – | – | – | – | – | – | – | – | – | – | – | considerable cytotoxic, anti-proliferative and also anti-androgenic activities |
